IC50 data for 16 compounds are collected here from US9067937B2 (priority 2012, dated 2015).

Structures can show the parent of a compound that is named as a salt.

One test concerns DU4475 cells. The experiment in a line: Cell-based assay, anti-proliferative activity (Cell Counting Kit-8, 72 hours). Further details: species or system human. The conditions noted are these: Homo sapiens, DU-4475, 72 h, read-out: IC50 (μM) (DU4475). A digest of the protocol:
(§1)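 Cells seeded at 2,000–3,000 cells/well and exposed to candidate MELK inhibitors for 72 hours; growth measured with Cell Counting Kit-8. IC50 values calculated from the growth read-out.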
For orientation: Formazan colour is commonly taken as a measure of viable cells.

For another test, the system named is T47D cells. Described as above. Details: species or system human. The settings on record: Homo sapiens, T47D, 72 h, read-out: IC50 (μM) (T47D). A digest of the protocol:
as §1

The next test deals with 22Rv1 cells. Described as above. Further details: species or system human. The settings on record: Homo sapiens, 22Rv1, 72 h, read-out: IC50 (μM) (22Rvl). The gist of the method:
as §1

In another test the test system is A549 cells. The description is as above. Details: species or system human. The conditions noted are these: Homo sapiens, A549, 72 h, read-out: IC50 (μM) (A549). A digest of the protocol: as §1
The next test deals with HT1197 cells. The experiment in a line: Cell-based assay, anti-proliferative activity, MELK-negative control (Cell Counting Kit-8, 72 hours). Details: species or system human. The conditions noted are these: Homo sapiens, HT1197, 72 h, read-out: IC50 (μM) (HTll97). On the procedure:
100 micro-L of cell suspension was seeded onto 96-well microtiter plate (ViewPlate-96FTC, PerkinElmer). The initial cell concentration of 22Rv1, T47D, A549, DU4475, and HT1197 were 3,000 cells/well, 2,000 cells/well and 2,500 cells/well, respectively. Cellular growth was determined using Cell Counting Kit-8 (DOJINDO) at 72 hours after the exposure of the candidate inhibitors. […] Accurate IC50 values were calculated as described previously.

The target in a further test is MELK (Homo sapiens, UniProt Q14680). The experiment in a line: Kinase assay (IMAP fluorescence polarization, FITC-labeled histone H3 peptide). The format is biochemical. The conditions noted are these: 50 micro-M ATP. The gist of the method:
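Kinase (0.8 ng/μL) reacted with 100 nM FITC-histone H3 peptide and 50 μM ATP in 20 mM HEPES, 0.3 mM MgCl2, 2 mM DTT, 0.01% Tween-20, pH 7.4, for 1 hour at room temperature. Phosphorylation read by IMAP fluorescence polarization after adding binding solution; IC50 from four-parameter fit.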
For orientation: Fluorescence polarisation rises when a labelled molecule tumbles more slowly, as on binding a larger partner.

Chain of MELK (Q14680 whole entry, looked up): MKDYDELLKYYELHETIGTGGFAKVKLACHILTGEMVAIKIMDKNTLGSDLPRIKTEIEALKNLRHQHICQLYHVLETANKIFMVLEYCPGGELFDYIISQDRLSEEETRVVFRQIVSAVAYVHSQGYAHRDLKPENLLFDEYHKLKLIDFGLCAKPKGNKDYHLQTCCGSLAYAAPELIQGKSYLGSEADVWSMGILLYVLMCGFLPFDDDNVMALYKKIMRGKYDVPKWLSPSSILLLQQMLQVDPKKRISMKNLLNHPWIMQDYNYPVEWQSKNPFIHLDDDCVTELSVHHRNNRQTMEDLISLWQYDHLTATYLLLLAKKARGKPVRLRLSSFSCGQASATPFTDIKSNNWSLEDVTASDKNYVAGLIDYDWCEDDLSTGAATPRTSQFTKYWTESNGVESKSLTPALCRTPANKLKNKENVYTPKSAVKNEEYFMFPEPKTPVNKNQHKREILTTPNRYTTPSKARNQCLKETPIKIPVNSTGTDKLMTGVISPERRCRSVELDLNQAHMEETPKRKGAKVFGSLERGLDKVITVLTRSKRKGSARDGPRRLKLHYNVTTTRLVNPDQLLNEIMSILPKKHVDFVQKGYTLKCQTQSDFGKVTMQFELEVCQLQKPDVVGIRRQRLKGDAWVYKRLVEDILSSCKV

Usually IC50 stands for the concentration that gives 50% inhibition. For `CCC(=O)c1cnc2ccc(-c3cc(Cl)c(O)c(Cl)c3)nc2c1Nc1ccc(N2CCC[C@H](N)C2)nc1` [Example 207, (S)-1-(4-{[6-(3-aminopiperidin-1-yl)pyridin-3-yl]amino}-6-(3,5-dichloro-4-hydroxyphenyl)-1,5-naphthyridin-3-yl)propan-1-one trihydrochloride], the IC50 in the test on DU4475 cells is 0.024 µM; in the test with T47D cells it was 0.018 µM; with 22Rv1 cells it was 0.034 µM; in the test with A549 cells it was 0.098 µM; in the test on HT1197 cells it was 3.9 µM; on MELK, 0.0016 µM.

Consider `CC(=O)c1cnc2ccc(-c3cc(F)c(O)c(Cl)c3)nc2c1Nc1cccc(CCN2CCCC2)c1` [Example 20, 1-[6-(3-Chloro-5-fluoro-4-hydroxyphenyl)-4-{3-[2-(pyrrolidin-1-yl)ethyl]phenylamino}-1,5-naphthyridin-3-yl]ethanone dihydrochloride], for which the IC50 in the test with DU4475 cells stood at 0.21 µM; in the test on T47D cells it was 0.5 µM; in the test with 22Rv1 cells, 0.81 µM; in the test on A549 cells, 0.31 µM; in the test with HT1197 cells it was 4.8 µM; on MELK it was 0.14 µM.

For `CC(=O)c1cnc2ccc(-c3cn[nH]c3)nc2c1N[C@H]1CC[C@H](CN(C)C)CC1` [Example 42, 1-(4-{trans-4-[(Dimethylamino)methyl]cyclohexylamino}-6-(1H-pyrazol-4-yl)-1,5-naphthyridin-3-yl)ethanone trihydrochloride], the IC50 is 0.045 µM with DU4475 cells; 0.036 µM in the test with T47D cells; 0.063 µM in the test on 22Rv1 cells; 0.049 µM in the test on A549 cells; 0.06 µM with HT1197 cells; 0.017 µM against MELK.

`CC(=O)c1cnc2ccc(-c3cc(F)c(O)c(Cl)c3)nc2c1N[C@H]1CC[C@H](NC(=O)C(C)N)CC1` (stereo partly drawn) [Example 74, N-{4-[3-Acetyl-6-(3-chloro-5-fluoro-4-hydroxyphenyl)-1,5-naphthyridin-trans-4-ylamino]-cyclohexyl}-2-aminopropanamide dihydrochloride]: the IC50 is 0.0036 µM with DU4475 cells; 0.0043 µM in the test on T47D cells; 0.025 µM in the test with 22Rv1 cells; 0.13 µM with A549 cells; 100 µM in the test with HT1197 cells; 0.0026 µM against MELK.

Take `COc1ccc(-c2ccc3ncc(C(C)=O)c(N[C@H]4CC[C@H](CN(C)C)CC4)c3n2)cc1` [Example 84, 1-(4-{trans-4-[(Dimethylamino)methyl]cyclohexylamino}-6-(4-methoxyphenyl)-1,5-naphthyridin-3-yl)ethanone dihydrochloride]: the IC50 with DU4475 cells is 5.2 µM; with T47D cells it was 0.25 µM; in the test with 22Rv1 cells, 0.58 µM; in the test on A549 cells it was 2.4 µM; in the test on HT1197 cells, 6 µM; against MELK, 0.031 µM.

For `CN(C)C[C@H]1CC[C@H](Nc2c(S(C)(=O)=O)cnc3ccc(-c4cc(F)c(O)c(Cl)c4)nc23)CC1` [Example 13, 6-(3-Chloro-5-fluoro-4-hydroxyphenyl)-4-({trans-4-[(dimethylamino)methyl]cyclohexyl}-amino)-3-methylsulfonyl-1,5-naphthyridine dihydrochloride], the IC50 in the test on DU4475 cells stood at 0.0068 µM; in the test on T47D cells, 0.013 µM; in the test with 22Rv1 cells it was 0.019 µM; in the test with A549 cells, 0.073 µM; in the test on HT1197 cells, 0.32 µM; against MELK, 0.0014 µM.

For the compound `CC(=O)c1cnc2ccc(-c3cc(Cl)c(O)c(Cl)c3)nc2c1Nc1ccc(N2CCC[C@H](N)C2)nc1` [Example 71, (S)-1-(4-{[6-(3-Aminopiperidin-1-yl)pyridin-3-yl]amino}-6-(3,5-dichloro-4-hydroxyphenyl)-1,5-naphthyridin-3-yl)ethanone trihydrochloride], the IC50 with DU4475 cells came out at 0.008 µM; in the test with T47D cells it was 0.0074 µM; in the test with 22Rv1 cells it was 0.014 µM; in the test on A549 cells, 0.09 µM; with HT1197 cells, 3.4 µM; on MELK, 0.0005 µM.

Regarding `CN(C)Cc1ccc(Nc2c(S(C)(=O)=O)cnc3ccc(-c4cc(F)c(O)c(Cl)c4)nc23)cc1` [Example 17, 2-Chloro-4-(8-{4-[(dimethylamino)methyl]phenylamino}-7-(methylsulfonyl)-1,5-naphthyridin-2-yl)-6-fluorophenol dihydrochloride], the IC50 with DU4475 cells is 0.064 µM; in the test with T47D cells, 0.13 µM; in the test with 22Rv1 cells, 0.33 µM; in the test on A549 cells, 0.83 µM; in the test on HT1197 cells, 6.6 µM; at MELK it was 0.0081 µM.

Turning to `COc1cc(-c2ccc3ncc(S(C)(=O)=O)c(Nc4ccc(CN(C)C)cc4)c3n2)cc(Cl)c1O` [Example 18, 2-Chloro-4-(8-{4-[(dimethylamino)methyl]phenylamino}-7-(methylsulfonyl)-1,5-naphthyridin-2-yl)-6-methoxyphenol dihydrochloride], the IC50 stood at 0.31 µM in the test with DU4475 cells; 0.32 µM with T47D cells; 1 µM with 22Rv1 cells; 0.69 µM in the test on A549 cells; 3.8 µM in the test on HT1197 cells; 0.005 µM against MELK.

As for `CN(C)[C@H]1CC[C@H](Nc2c(C(=O)CO)cnc3ccc(-c4cc(Cl)c(O)c(Cl)c4)nc23)CC1` [Example 203, 1[6-(3,5-dichloro-4-hydroxyphenyl)-4-{[trans-4-(dimethylamino)cyclohexyl]amino}-1,5-naphthyridin-3-yl)-2-hydroxyethanone dihydrochloride], the IC50 with DU4475 cells amounted to 0.013 µM; with T47D cells it was 0.0093 µM; in the test on 22Rv1 cells it was 0.017 µM; in the test with A549 cells, 0.034 µM; in the test on HT1197 cells, 1.2 µM; against MELK, 0.0015 µM.

With `CC(=O)c1cnc2ccc(-c3cc(F)c(O)c(F)c3)nc2c1N[C@H]1CC[C@H](CN(C)C)CC1` [Example 50, 1-[6-(3,5-Difluoro-4-hydroxyphenyl)-4-{trans-4-[(dimethylamino)methyl]cyclohexylamino}-1,5-naphthyridin-3-yl]ethanone dihydrochloride], the IC50 in the test with DU4475 cells was determined as 0.0053 µM; in the test on T47D cells, 0.0061 µM; in the test on 22Rv1 cells it was 0.017 µM; in the test with A549 cells, 0.015 µM; with HT1197 cells, 0.08 µM; against MELK it was 0.0019 µM.

For `CC(=O)c1cnc2ccc(-c3cc(F)c(O)c(Cl)c3)nc2c1N[C@H]1CC[C@H](CCN(C)C)CC1` [Example 10, 1-(6-(3-Chloro-5-fluoro-4-hydroxyphenyl)-4-{trans-4-[2-(dimethylamino)ethyl]-cyclohexylamino}-1,5-naphthyridin-3-yl)ethanone dihydrochloride], the 50% inhibitory concentration (IC50) in the test with DU4475 cells came out at 0.0049 µM; in the test on T47D cells it was 0.0039 µM; with 22Rv1 cells it was 0.01 µM; in the test with A549 cells, 0.012 µM; with HT1197 cells, 0.2 µM; against MELK it was 0.0014 µM.

For `CC(=O)c1cnc2ccc(-c3cc(Cl)c(O)c(Cl)c3)nc2c1N[C@H]1CC[C@H](CN2CCCC2)CC1` [Example 61, 1-{6-(3,5-Dichloro-4-hydroxyphenyl)-4-[trans-4-(pyrrolidin-1-ylmethyl)cyclohexylamino]-1,5-naphthyridin-3-yl}ethanone dihydrochloride], the IC50 in the test on DU4475 cells was 0.0044 µM; in the test on T47D cells, 0.0069 µM; in the test with 22Rv1 cells, 0.011 µM; in the test with A549 cells it was 0.012 µM; with HT1197 cells it was 0.15 µM; against MELK, 0.0004 µM.

Regarding `CC(=O)c1cnc2ccc(-c3c(C)n[nH]c3C)nc2c1N[C@H]1CC[C@H](CN(C)C)CC1` [Example 58, 1-(6-(3,5-Dimethyl-1H-pyrazol-4-yl)-4-{trans-4-[(dimethylamino)methyl]cyclohexylamino}-1,5-naphthyridin-3-yl)ethanone trihydrochloride], the IC50 was found to be 5.9 µM in the test with DU4475 cells; 1.6 µM in the test on T47D cells; 6.1 µM with 22Rv1 cells; 3 µM in the test on A549 cells; 10 µM in the test with HT1197 cells; 1 µM against MELK.

Take `CC(=O)c1cnc2ccc(-c3cc(Cl)c(O)c(Cl)c3)nc2c1Nc1ccc(CN2CCCC2)cc1` [Example 60, dihydrochloride]: the IC50 with DU4475 cells came out at 0.041 µM; in the test on T47D cells, 0.066 µM; in the test with 22Rv1 cells, 0.1 µM; in the test with A549 cells it was 0.11 µM; in the test with HT1197 cells, 1.1 µM; at MELK, 0.0043 µM.

On to `CC(=O)c1cnc2ccc(-c3cc(F)c(O)c(Cl)c3)nc2c1Nc1ccc(N2CCC[C@@H](N)C2)nc1` [Example 96, (R)-1-{4-[6-(3-Aminopiperidin-1-yl)pyridin-3-ylamino]-6-(3-chloro-5-fluoro-4-hydroxyphenyl)-1,5-naphthyridin-3-yl}ethanone], for which the IC50 in the test on DU4475 cells came to 0.024 µM; in the test with T47D cells, 0.018 µM; in the test on 22Rv1 cells, 0.026 µM; in the test with A549 cells, 0.035 µM; in the test with HT1197 cells, 0.43 µM; against MELK, 0.0036 µM.
